Like-named read-outs stand apart in the source and are kept apart here.
Tests used:
MDA-MB-231 = test: Cytotoxicity assay (MTS, 72 h); format: cell-based; details: Homo sapiens
MDA-MB-231/TxR = test: Cytotoxicity assay (MTS, 72 h); format: cell-based; details: Homo sapiens, read-out: IC50 ± SEM (nM) MDA-MB-231/TxR, Table 2, paclitaxel-resistant
MDA-MB-231/VxR = test: Cytotoxicity assay (MTS, 72 h); format: cell-based; details: Homo sapiens, MDA-MB-231, read-out: IC50 ± SEM (nM) MDA-MB-231/VXR
Mia PaCa-2 [1] = test: Cytotoxicity assay (MTS, 72 h); format: cell-based; details: Homo sapiens
PANC-1 [2] = test: Cytotoxicity assay (MTS, 72 h); format: cell-based; details: Homo sapiens
Procedure: Mia PaCa-2 and PANC-1 cells were seeded in 96-well plates at 4000 and 5000 cells per well, respectively.
(§1) Cytotoxicity Assay. […] Each experiment consisted of four replicates.

[3] = molecular target: T1, tubulin protein from bovine brain (Bos taurus, UniProt P81947+Q6B856); test: Tubulin polymerization assay (FIG. 5A); format: biochemical; details: 10 μM, cell-free
T1 construct: tubulin protein from bovine brain origin; purchased Cytoskeleton, Denver, Colo; host or cells: bovine brain
Procedure: Tubulin polymerization reaction was initiated by adding 100 μL of tubulin protein from bovine brain origin (3 mg/ml, Cytoskeleton, Denver, Colo.) into 10 μM of test compounds in general tubulin buffer (80 mM PIPES, 2.0 mM MgCl2, 0.5 mM EGTA, and 1 mM GTP) according to the manufacturer protocol. The reaction kinetics were recorded in every thirty seconds for 1 h at 37° C. and a microplate reader equipped with absorbance settings at 340 nm wavelength was used for this purpose. The experiment was performed in duplicates.

porcine brain tubulin = molecular target: T2, porcine brain tubulin (Sus scrofa, UniProt P02550+P02554); test: Tubulin polymerization inhibitory assay (FIG. 29A); format: biochemical; details: 10 μM, 37° C.; DMSO control 0.3
T2 construct: tubulin mixture containing porcine brain tubulin (3 mg/mL); purchased Cytoskeleton, Inc. T-238P; host or cells: porcine brain
Procedure: Tubulin polymerization inhibitory assay: In vitro tubulin polymerization assay was carried out according to the manufacturers' instructions (Cytoskeleton). Briefly, 10 μM of 5v was added into tubulin protein (3 mg/mL, purity>99%), and the mixture was transferred into a microplate reader and incubated at 37° C. […] Colchicine and paclitaxel were used as positive controls. […] The assay was carried out in duplicate.

A375/TxR xenografts = test: In vivo A375/TxR melanoma xenograft model; set-up: species or system NSG mice
[4] = system: PC-3/TxR xenograft tumors; test: Subcutaneous PC-3/TxR xenograft model; format: in vivo
Mia PaCa-2 [5] = test: Colony formation assay (PDAC); format: cell-based, human; details: tested 1, 2.5, 5 nM
Procedure: Cells were seeded at 1000 cells per well in 6-well plates in triplicates and treated with vehicle control or 1-5 nmol/L test compounds for 11 to 14 days. The colonies were fixed with 100% methanol and stained with 0.5% crystal violet. Colony area was quantified with Image J software.

PANC-1 [6] = test: Colony formation assay (PDAC); format: cell-based, human; details: tested 1, 2.5, 5 nM
Mia PaCa-2 cells = test: Scratch migration assay (PDAC); format: cell-based, human; details: 5m 2 nM, PTX 4 nM, 48 h; listed as PTX
Procedure: The Mia PaCa-2 cells (25,000 cells/well) were seeded in 96-well plates and allowed to adhere overnight. At 80-90% confluence, scratch was made with a wound maker. After washing off the debris, medium was replaced and tested compounds were added. Cells were live monitored with IncuCyte and pictures obtained every 2 h. Compared with the control, the wound width of cells under different treatment conditions was quantified according to the endpoint width over starting point.

A549/TxR = test: cells; details: Homo sapiens, read-out: IC50 ± SEM (nM) A549/TxR
[7] = system: A2780/TxR ovarian cancer xenografts; test: Orthotopic A2780/TxR ovarian cancer xenograft model; details: paclitaxel 5 mg/kg IV
MDA-MB-453 = test: Cytotoxicity assay (MTS, 72 h); format: cell-based, human; details: Homo sapiens, MDA-MB-453; Table 6; read-out: IC50 (nM) Breast Cancer MDA-MB-453
PC3 = test: Cytotoxicity assay (MTS, 72 h); format: cell-based; details: Homo sapiens, PC-3; Table 6; read-out: IC50 (nM) Prostate cancer PC3
Excerpt: as §1

PC3/TxR = test: Cytotoxicity assay (MTS, 72 h); format: cell-based; details: Homo sapiens, Table 6, paclitaxel-resistant, read-out: IC50 (nM) Prostate cancer PC3/TxR
Procedure: Biology. Cell culture and Reagents. […] MIA Paca-2 pancreatic cancer cells were cultured in media also supplemented with 2.5% horse serum. PANC-1 and PC-3 were cultured in RPMI 1640 medium (Gibco, Carlsbad, Calif.) supplemented with 10% FBS and 1% antibiotic/antimycotic mixture. […] For biological experiments, pyrimidine dihydroquinoxalinone derivatives were dissolved in DMSO to create 20 mM stock solutions and stored at −20° C. until use.
as §1

[8] = Pharmacokinetic evaluation of 12k in mice; format: in vivo, NSG mice; details: female, mouse, plasma; for half-life: NSG
Procedure: Female NSG mice at 7 to 9 weeks of age were used in pharmacokinetic studies. Mice received a single dose of 4 mg/kg 12k intravenously (50% PEG300:50% saline) or 10 mg/kg orally (90% PEG300:10% saline). Blood of animals (n=3) was collected in heparinized tubes via terminal intracardiac blood collection at predefined time points (0.08, 0.25, 0.5, 1, 3, 6, 12, 24 h) and plasma was immediately separated by centrifugation (10,000 rpm for 10 min at 4° C.) and stored at −80° C. until analysis.

A-253 and Detroit 562 [9] = test: Cytotoxicity in head and neck cancer cell lines; format: cell-based; details: Homo sapiens; FIG. 39A; read-out: IC50 values, range over A-253 and Detroit 562
Procedure: A panel of dihydroquinoxalinones were tested in two head and neck cancer cell lines, A-253 and Detroit 562. A-253 cells are a human salivary epidermoid carcinoma cell line, whereas Detroit 562 is a head and neck squamous cell carcinoma (HNSCC). Oral cancer is the most common type of head and neck cancer and more than 90% of oral cancers are either oral or oropharyngeal squamous cell carcinoma (SCC). A major clinical dilemma is chemotherapy efficiency targeted for head and neck squamous cell carcinoma (HNSCC). The inability to successfully complete cancer treatment utilizing a standard surgical approach due to an advanced stage of HNSCC and/or resistance of SCC cells to conventional chemotherapy and/or radiotherapy leads to a continuous search for new compounds with cytostatic activity and minor side effects.
FIGS. 39B and 39C illustrate the graphical representation of the data. […] For example, at treatment levels as low of 0.5 nM, 12k was able to prevent head and neck cancer cell proliferation almost completely, whereas it required 5 nM of 17ya to achieve similar antiproliferation.

A-253 cells = test: Colony formation, head and neck cancer; format: cell-based, human
Procedure: (§2) FIG. 41A illustrates the effect of compound 12k on colony formation in the A-253 cell line. FIG. 41B illustrates the effect of compound 12k on colony formation in the Detroit 562 cell line. Colony formation experiments were performed as described elsewhere herein.

Detroit 562 cells = test: Colony formation, head and neck cancer; format: cell-based, human
Procedure: as §2

A-253 and Detroit 562 [10] = test: Western blot of apoptosis markers, head and neck cancer; format: cell-based, human; details: 100 nM, 72 hours
Excerpt: FIG. 42A illustrates that compound 12k induces apoptosis in the A-253 cell line. FIG. 42B illustrates that compound 12k induces apoptosis in the Detroit 562 cell line.

in vivo = details: male, NSG, mouse, brain/plasma, iv, 4 mg/kg
in vitro [11] = details: human, liver microsomes
in vitro [12] = details: mouse, liver microsomes
A375 = test: Cytotoxicity assay (MTS, 72 h); details: Homo sapiens, A-375, read-out: IC50 (nM) Melanoma Cancer A375, Table 6;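 note: compounds tested from 0.1 nM up to 3 µM in four replicate wells, with absorbance read at 490 nm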
M14 = test: Cytotoxicity assay (MTS, 72 h); details: Homo sapiens, M14, read-out: IC50 (nM) Melanoma Cancer M14
A-253 and Detroit 562 [13] = test: Head and neck cancer cell proliferation (confluence %)
[14] = intravenous (4 mg/kg), NSG mice

T2 sequence (P02550 whole entry): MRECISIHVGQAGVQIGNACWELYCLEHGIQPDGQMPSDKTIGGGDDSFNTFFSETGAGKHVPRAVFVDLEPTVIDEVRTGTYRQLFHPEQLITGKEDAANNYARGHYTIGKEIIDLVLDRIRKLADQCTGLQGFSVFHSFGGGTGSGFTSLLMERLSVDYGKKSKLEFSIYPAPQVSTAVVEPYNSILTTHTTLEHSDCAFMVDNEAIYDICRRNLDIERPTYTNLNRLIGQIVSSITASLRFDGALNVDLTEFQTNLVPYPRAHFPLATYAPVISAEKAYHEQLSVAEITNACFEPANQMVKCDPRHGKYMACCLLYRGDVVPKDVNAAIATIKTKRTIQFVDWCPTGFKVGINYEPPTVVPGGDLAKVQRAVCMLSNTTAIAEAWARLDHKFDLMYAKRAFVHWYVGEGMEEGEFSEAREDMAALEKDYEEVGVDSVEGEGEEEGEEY
T2 sequence (P02554 whole entry): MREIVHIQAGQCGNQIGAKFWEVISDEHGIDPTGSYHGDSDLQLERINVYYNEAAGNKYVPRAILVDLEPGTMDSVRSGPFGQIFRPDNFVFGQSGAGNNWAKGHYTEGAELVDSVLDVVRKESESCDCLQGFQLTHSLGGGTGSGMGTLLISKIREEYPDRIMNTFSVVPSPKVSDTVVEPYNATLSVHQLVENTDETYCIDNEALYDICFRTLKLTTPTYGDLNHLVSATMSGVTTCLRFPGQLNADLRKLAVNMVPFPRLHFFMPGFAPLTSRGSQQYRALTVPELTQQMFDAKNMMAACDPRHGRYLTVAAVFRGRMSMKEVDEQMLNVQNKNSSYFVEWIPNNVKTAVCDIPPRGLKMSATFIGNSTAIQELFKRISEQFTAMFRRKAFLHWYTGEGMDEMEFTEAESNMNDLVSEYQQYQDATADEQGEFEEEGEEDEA
T1 sequence (P81947 whole entry): as the sequence (P02550 whole entry) above, with S136L, G232S, A265I, T340S, E358Q counted along it
T1 sequence (Q6B856 whole entry): as the sequence (P02554 whole entry) above, with A55T, V170M, A296S, V316I, G440E, E441G counted along it

Molecule CC(=O)O[C@H]1C(=O)[C@@]2(C)[C@H]([C@H](OC(=O)c3ccccc3)[C@]3(O)C[C@H](OC(=O)[C@H](O)[C@@H](NC(=O)c4ccccc4)c4ccccc4)C(C)=C1C3(C)C)[C@]1(OC(C)=O)CO[C@@H]1C[C@@H]2O [Paclitaxel, reference compound] has an IC50 (MDA-MB-231; MDA-MB-231, read-out: IC50 ± SEM (nM) MDA-MB-231, Table 2) of 2.3 ± 0.4 nM, an IC50 (MDA-MB-231/TxR) greater than 50 nM and an IC50 (MDA-MB-231/VxR) of 3.4 ± 0.5 nM. For the same molecule, the IC50 (Mia PaCa-2 [1]; Example 7, FIG. 20, read-out: calculated IC50, Mia PaCa-2 cells) was 2.5 nM, the IC50 (PANC-1 [2]; Example 7, FIG. 20, read-out: calculated IC50, PANC-1 cells) was 1.1 nM and the “effect on microtubule polymerization” value [3] was “polymerization enhancement”. For the same molecule, the “A340 at which tubulin assembly stabilized” value (porcine brain tubulin) was “approximately 0.4”, the “spontaneous lung metastasis” value (A375/TxR xenografts; H&E and anti-human mitochondria IHC) was “no effect on the lung spontaneous metastasis” and the “tumor-suppressive effect” value (A375/TxR xenografts; paclitaxel 4 mg/kg IV twice a week) was “no significant tumor-suppressive effect”. For the same molecule, the “effect on tumor growth” value (A375/TxR xenografts; paclitaxel 10 mg/kg IV, 2 times per week) was “ineffective”, the “tumor weight reduction” value ([4]; paclitaxel 10 mg/kg, 1 dose/week) was “insignificant tumor weight reduction” and the “dose at which colony formation was completely inhibited” value (Mia PaCa-2 [5]) was 5 nM. For the same molecule, the “dose with nearly complete inhibition of colony formation” value (PANC-1 [6]) was 5 nM, the “cell migration / wound healing” value (Mia PaCa-2 cells) was “inhibited cell migration over 48 hours” and the IC50 (A549/TxR) was greater than 1000 nM. The “effect on A2780/TxR model” value [7] was “limited effect”.
In the case of CNc1nc2c(c(N3CC(=O)Nc4cc(OC)ccc43)n1)CCC2 [Compound 12k, 7-methoxy-4-(2-(methylamino)-6,7-dihydro-5H-cyclopenta[d]pyrimidin-4-yl)-3,4-dihydroquinoxalin-2(1H)-one], the IC50 (MDA-MB-231; MDA-MB-231, read-out: IC50 (nM) Breast Cancer MDA-MB-231, Table 6) is reported as 2.2 ± 1.5 nM, the IC50 (MDA-MB-453) is reported as 0.9 ± 0.2 nM and the IC50 (Mia PaCa-2 [1]; Table 6, read-out: IC50 (nM) Pancreatic cancer Mia PaCa-2) is reported as 2.9 ± 0.5 nM. The IC50 (PANC-1 [2]; Table 6, read-out: IC50 (nM) Pancreatic cancer PANC-1) was 2.8 ± 0.5 nM, the IC50 (PC3) was 0.5 ± 0.1 nM and the IC50 (PC3/TxR) was 0.2 nM. The half-life ([8]; intravenous, 4 mg/kg, text b345, read-out: in vivo half-life) was 3.97 h, the half-life ([8]; iv, 4 mg/kg, intravenous (4 mg/kg), NSG mice, read-out: t1/2 (converted)) was 3.97 h and the half-life ([8]; po, 10 mg/kg, oral (10 mg/kg), NSG mice, read-out: t1/2 (converted)) was 5.97 h. It also gave an AUC [8, 14] of 2890 ng·h/mL, a Cmax [8, 14] of 1250 ng/mL and a Tmax [8, 14] of 0.0833 h. For the same molecule, the AUC ([8]; oral (10 mg/kg), NSG mice) was 136 ng·h/mL, the Cmax ([8]; oral (10 mg/kg), NSG mice) was 78.3 ng/mL and the Tmax ([8]; oral (10 mg/kg), NSG mice) was 0.167 h. The bioavailability ([8]; oral (10 mg/kg), NSG mice) was 2.02%, the “inhibition of tumor growth in volume (ex vivo) vs control” value ([4]; 2.5 mg/kg i.v., 2 doses/week) was “approximately 85.6%” and the “reduction of tumor weight vs control” value ([4]; 2.5 mg/kg i.v., 2 doses/week) was 84.5%. The “tolerability / body weight” value ([4]; 2.5 mg/kg twice per week) was “well tolerated”, the IC50 (A-253 and Detroit 562 [9]) was 0.52 to 3.2 nM and the “concentration with near complete inhibition of colony formation” value (A-253 cells) was 1 nM. The “concentration with near complete inhibition of colony formation” value (Detroit 562 cells) was 2 nM, the “apoptotic markers c-PARP and c-cas 3” value (A-253 and Detroit 562 [10]) was “elevated levels of apoptotic markers” and the Kp at 1 h (in vivo) was 0.45. It also gave a half-life at 1 μg/mL (in vitro [11]) greater than 5 h, a microsomal CLint at 1 μg/mL (in vitro [11]) of less than 2.31 µL/min/mg and a half-life at 1 μg/mL (in vitro [12]) greater than 5 h. For the same molecule, the microsomal CLint at 1 μg/mL (in vitro [12]) was less than 2.31 µL/min/mg, the IC50 (A375) was 1.2 ± 0.2 nM and the IC50 (M14) was 0.7 ± 0.1 nM. For the same molecule, the “potency of 12k relative to compound 17ya” value (A-253 and Detroit 562 [13]; A-253 and Detroit 562) was roughly 10 fold and the “treatment level preventing cell proliferation almost completely” value (A-253 and Detroit 562 [13]; confluence over 62 h) was 0.5 nM.
